In the experiment the test system is SARS-CoV-2 variants of concern (Alpha, Beta, Delta and Omicron). Briefly: microbe, parasite or virus in culture. In kind it is cell-based. The conditions noted are these: Severe acute respiratory syndrome coronavirus 2, VeroE6/TMPRSS2, read-out: EC50 against SARS-CoV-2 VOC.

Usually EC50 stands for the concentration at which the effect is half-maximal.

Take `O=C(Nc1ccccc1Cl)c1sc(=S)n2c1[nH]c(=O)c1ccccc12` [F0213]: the concentration for a half-maximal effect (EC50) lay within 2.2 to 4.8 µM.

The values are drawn from publication PMC8983325 (Protein & Cell, 2022).
